Reference: patent US7632662B2, “Compounds, compositions and methods for producing antioxidants from carnitine” (priority 2002, dated 2009)
Read-outs that look alike come from different tables or passages of the source.

Legend:
[1] = tested on: geriatric depressed subjects; conditions: cited from earlier work; for day 60 HDRS: 3.0 gm/day
Aβ(1-40) peptide = molecular target: T1, Aβ(1-40) peptide (Homo sapiens, UniProt P05067); assay: Acetylation of Aβ(1-40) peptide by ALCAR; type: biochemical
T1 construct: the Aβ(1-40) peptide derived from the ubiquitous protein, amyloid precursor protein

rat brain = assay: Effect of ALCAR on in vitro 31P MRS brain metabolite and phospholipid levels under normoxia and brief hypoxia; type: in vivo, Fischer 344 rats; conditions: for PCr levels: non-significant; for Phosphatidylserine (PtdS) levels, change: p<0.01
Experimental: FIG. 4 is a block diagram illustrating an effect of ALCAR on in vitro ^31P MRS α-GP and PCr levels under hypoxic (30 seconds) and normoxic conditions in Fischer 344 rats.
FIG. 5 is a block diagram illustrating an effect of ALCAR on in vitro ^31P MRS phospholipid levels under hypoxic and normoxic conditions in Fischer 344 rats.
The rat brain responds differentially to brief energetic stress (30 seconds of hypoxia) depending on the age of the animal. The effect of ALCAR (75 mg/kg animal weight injected intraperitoneally 1 hour before sacrificing the animal) on both normoxic rat brain and rat brain exposed to brief hypoxia (30 seconds) was investigated (FIGS. x and x). These studies were conducted on aged rats (30 months) to provide possible insights into human aged brain and MDD.

brain PME levels = assay: In vivo 31P MRSI in two young subjects with MDD; design: species or system human; conditions: 2 young MDD subjects; treatment with ALCAR
Excerpt: As part of an ongoing ^31P-^1H MRSI study of never-medicated, first-episode schizophrenia subjects three ^31P MRSI spectra on 2 MDD subjects (1 person, 1 person, 24∀2.3 years) were obtained. The MDD spectral results are compared with those obtained from 13 controls (6 males; 3 white, 2 African-American, 1 Asian and 7 females; 4 white, 3 African-American; 21∀1.0 years). PME levels in the MDD subjects were increased by approximately 15% (p=0.13) while there were decreases in the levels of PDE (approx. −7%; p=0.08), PCr (approx. −5%, p=0.61), and β-ATP (approx. −3%, p=0.87) (FIG. 6). Treatment with ALCAR lowered PME levels in the MDD subjects.

[2] = tested on: non-demented geriatric major depressive disorder (NDG-MDD) subjects; assay: Twelve-week open clinical study of ALCAR in geriatric major depressive disorder: HDRS, CIRS, side effects; type: in vivo, human; conditions: for HDRS score: oral
Excerpt: (§1) A twelve-week, open, clinical, ^31P MRSI study design was used to examine the possible effects of ALCAR on brain metabolism and depressive symptomatology in non-demented geriatric major depressive disorder (NDG-MDD). Two depressed, non-demented [Folstein Mini-Mental State Exam (MMSE)>24)] male subjects, were compared with six age, social-economic status, and medically matched non-demented controls (all male, mean age of 73.6±3.6 years, range 69.7-78.2 years). The two elderly depressed subjects completed baseline Structural Clinical Interview of DSM-IV (SCID) I/P version 2.0, HDRS (17 item), MMSE, UKU Side Effect Rating Scale (UKU), and Cumulative Illness Rating Scale (CIRS) to assess medical burden, baseline physical, ECG, and, laboratory tests for hematology, urine analysis, immunopathology, and blood chemistry. Follow-up visits for the depressed subjects were done every other week for 12 weeks. Efficacy (psychiatric evaluation) was assessed by changes in the HDRS which was performed at baseline and every other week for 12 weeks along with secondary measures (MMSE; CIRS; and UKU), whereas the CIRS was performed at baseline, 6, and 12 weeks. Physical examinations and EKGs were performed at baseline, 6, and 12 weeks. The baseline MR evaluation was scheduled and completed prior to the administration of ALCAR. Follow-up MR evaluations were at 6 and 12 weeks. Acetyl-L-carnitine was administered in the form of oral tablets containing 590 mg of acetyl-L-carnitine hydrochloride (500 mg acetyl-L-carnitine). The dosage regimen was fixed at three grams of acetyl-L-carnitine given two tablets three times a day for 12 weeks.
The statistical analysis was done using the Statview (SAS Institute, Inc.) software package. The pearson t correlation test used to correlate between variables.

[3] = tested on: brain PME(s-τc) and PCr levels; assay: 31P MRSI of brain metabolite levels in two depressed elderly subjects treated with ALCAR for 12 weeks; type: in vivo, human; conditions: for increase of prefrontal PCr levels with ALCAR treatment: prefrontal region
Excerpt: Phosphorus magnetic resonance spectroscopic imaging (^31P MRSI) analysis of two depressed elderly subjects treated with ALCAR for 12 weeks are compared with those of six normal non-demented, non-depressed subjects.
as §1
^31P MRSI acquisition—A custom built, doubly tuned transmit/receive volume head coil was used to acquire the ^1H MRI and 2D ^31P MRSI data on a GE Signa 1.5 T whole body MR imager. First, sets of axial and sagittal scout MR images were collected. […] A self-refocused spin echo pulse sequence with an effective flip range of 60° and an echo time of 2.5 ms, was used to acquire the ^31P MRSI (360 mm field of view, 30 mm slice thickness, 8×8 phase encoding steps [45×45×30 mm^3 nominal voxel dimensions], 2 s TR, 1024 data points, 4.0 kHz spectral bandwidth and 16 NEX).
MRSI post-processing and quantification—To optimize the right and left voxel positions for the six regions, the 8×8 ^31P grid was shifted with respect to the anatomical MRI and a mild spatial apodization (i.e., Fermi window with 90% diameter and 5% transition width) was applied prior to the inverse Fourier transform. The remaining processing steps were 100% automated. A 5 Hz exponential apodization was applied and the PME, phosphodiester (PDE), PCr, α-, γ-, and β-ATP, and inorganic orthophosphate (Pi), were modeled in the time domain with exponentially damped sinusoids and by omitting the first 2.75 ms of the free induction decay (FID) using the Marquardt-Levenberg algorithm. This approach ensured that the PME and PDE resonances primarily reflected the freely mobile, short correlation time (s-τc), water soluble PME(s-τc) and PDE(s-τc) metabolites without the influence of relatively broad underlying signals within the PME and PDE spectral region. […]

[4] = tested on: canine model of complete, global cerebral ischemia and reperfusion; conditions: versus vehicle-treated control animals; p=0.0037; Rosenthal et al. 1992; cited from earlier work

T1 sequence (P05067 672-711 limits assumed): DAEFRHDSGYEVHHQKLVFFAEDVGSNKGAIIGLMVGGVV

Compound: CC(=O)O[C@H](CC(=O)[O-])C[N+](C)(C)C [ALCAR, acetyl-L-carnitine]
- day 60 HDRS ([1]; Bella et al. 1990, baseline HDRS 22, placebo day 60 = 20): 11
- day 60 HDRS ([1]; Fulgente et al. 1990, baseline HDRS 25, placebo day 60 = 22): 12
- HDRS ([1]; Garzya et al. 1990, 1.5 gm/day, ages 70-80 years): significant beneficial effects
- mean cortisol levels and 12 am and 4 pm cortisol levels ([1]; Gecele et al. 1991, 2 gm/day, p<0.001, p<0.001, p<0.01): significant reduction
- HDRS ([1]; Gecele et al. 1991, 2 gm/day, p<0.001): significant improvement
- HDRS scores ([1]; Nasca et al. 1989, day 40 of treatment, baseline HDRS 44.9, p<0.001): significant improvement
- side effects ([1]; Tempesta et al. 1987, 2 gm/day): no reported ALCAR side effects
- HDRS scores ([1]; Tempesta et al. 1987, open label cross over, 2 gm/day, subjects over 70 years): highly effective
- side effects ([1]; Villardita et al. 1983, 1.5 gm/day, 40 days): no side effects
- Hamilton Depressive Rating Scale (HDRS) ([1]; Villardita et al. 1983, 1.5 gm/day, day 40, baseline HDRS 26.3, p<0.001): significant improvement
- tolerability ([1]; randomized double-blind studies, even at the higher dosages (up to 3.0 gm/day)): well tolerated
- acetylation of the Aβ(1-40) peptide (Aβ(1-40) peptide): can acetylate lysine 28
- Cardiolipin levels (rat brain; ALCAR/hypoxia): non-significantly reduced
- α-GP levels, change compared with controls (rat brain; ALCAR/hypoxia (30 seconds), aged rats (30 months), 75 mg/kg i.p., p=0.01): approximately +80%
- PCr levels (rat brain; ALCAR/hypoxia, p=0.07): decrease
- Phosphatidylserine (PtdS) levels, change (rat brain; ALCAR/hypoxic): approx. −75%
- Cardiolipin levels (rat brain; ALCAR/normoxia): unchanged
- α-GP levels (rat brain; ALCAR/normoxia, aged rats (30 months), 75 mg/kg intraperitoneally 1 hour before sacrifice): did not alter
- PCr levels (rat brain; ALCAR/normoxia): increase
- Phosphatidylserine (PtdS) levels, change (rat brain; ALCAR/normoxia): approx. −50%
- PME levels in the MDD subjects (brain PME levels): lowered
- Side effects from ALCAR treatment ([2]; both depressed subjects, 12 weeks, three grams per day): mild
- laboratory exams and EKG ([2]; either depressed subject): No clinically significant abnormalities
- Side effects from ALCAR treatment ([2]; subject #1): dry mouth
- CIRS ([2]; subject #1, 6 weeks, baseline 7): 6
- HDRS score ([2]; subject #1, 6 weeks, baseline 15, three grams acetyl-L-carnitine per day): 1
- CIRS ([2]; subject #1, 12 weeks, baseline 7): 5
- HDRS score ([2]; subject #1, 12 weeks, baseline 15, three grams per day): 0
- Side effects from ALCAR treatment ([2]; subject #2): slight increase in perspiration
- CIRS ([2]; subject #2, 6 weeks, baseline 4): 4
- HDRS score ([2]; subject #2, 6 weeks, baseline 20, three grams per day): 17
- CIRS ([2]; subject #2, 12 weeks, baseline 4): 2
- HDRS score ([2]; subject #2, 12 weeks, baseline 20, three grams per day): 3
- PME(s-τc) levels in the superior temporal regions ([3]; after 12 weeks of ALCAR treatment, compared with normal subjects, p=0.05): elevated
- PCr levels in the prefrontal, basal ganglia and occipital regions ([3]; after 12 weeks of ALCAR treatment, compared with normal subjects, p=0.001, 0.022, 0.027): elevated
- prefrontal PME(s-τc) levels ([3]; baseline 1.5 to 2.0 SD higher than mean of controls, with ALCAR treatment): normalized
- increase of prefrontal PCr levels with ALCAR treatment ([3]; first of the two depressed subjects (respectively)): 27%
- increase of prefrontal PCr levels with ALCAR treatment ([3]; second of the two depressed subjects (respectively)): 31%
- neurological deficit scores [4]: significantly lower
